*1 amine or outer side, *2 acyl side, *3 side chain or, on linkers, in order; H or OH if unused. Side-chain parts run from the residue outwards. The star is where a group is joined. C18 diacid = O=C(O)CCCCCCCCCCCCCCCCC(=O)*; γGlu = O=C(O)[C@H](CCC(=O)[*:2])N[*:1]; Isovaleryl = CC(C)CC(=O)*; Ahx = NCCCCCC(=O)O
T1: Human Neuropeptide Y2 Receptor (Homo sapiens, UniProt P49146)
T1 construct: purchased CHEMICON HTS066M
T1 sequence (P49146 1-381): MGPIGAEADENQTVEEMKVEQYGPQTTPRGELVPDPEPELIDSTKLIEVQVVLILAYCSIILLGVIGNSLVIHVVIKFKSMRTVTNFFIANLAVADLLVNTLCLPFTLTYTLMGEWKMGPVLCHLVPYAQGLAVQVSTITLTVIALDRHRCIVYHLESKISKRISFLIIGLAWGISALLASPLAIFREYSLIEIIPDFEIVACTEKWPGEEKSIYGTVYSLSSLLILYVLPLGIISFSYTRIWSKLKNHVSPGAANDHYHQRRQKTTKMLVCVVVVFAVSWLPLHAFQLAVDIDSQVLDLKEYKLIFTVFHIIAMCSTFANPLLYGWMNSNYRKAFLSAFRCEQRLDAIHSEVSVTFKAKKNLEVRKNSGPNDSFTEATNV

T2: human NPY5 receptor (hY5R) (Homo sapiens, UniProt Q15761)
T2 sequence (Q15761 1-445): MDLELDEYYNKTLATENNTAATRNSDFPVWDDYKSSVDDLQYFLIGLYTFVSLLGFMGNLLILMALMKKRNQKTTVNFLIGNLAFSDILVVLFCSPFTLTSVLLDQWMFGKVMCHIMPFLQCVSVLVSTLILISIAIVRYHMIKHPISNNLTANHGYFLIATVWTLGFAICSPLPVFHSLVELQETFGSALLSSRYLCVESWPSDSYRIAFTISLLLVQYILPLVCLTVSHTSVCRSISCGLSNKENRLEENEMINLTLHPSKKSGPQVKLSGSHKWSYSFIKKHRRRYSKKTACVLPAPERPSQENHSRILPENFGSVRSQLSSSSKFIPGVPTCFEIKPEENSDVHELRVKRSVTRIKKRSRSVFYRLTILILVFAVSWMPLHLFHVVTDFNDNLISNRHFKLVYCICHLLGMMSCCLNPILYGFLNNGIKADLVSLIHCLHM

T3: human NPY1 receptor (hY1R) (Homo sapiens, UniProt P25929)
T3 construct: expressed in transfected cells; host or cells: CHO-K1
T3 sequence (P25929 1-384): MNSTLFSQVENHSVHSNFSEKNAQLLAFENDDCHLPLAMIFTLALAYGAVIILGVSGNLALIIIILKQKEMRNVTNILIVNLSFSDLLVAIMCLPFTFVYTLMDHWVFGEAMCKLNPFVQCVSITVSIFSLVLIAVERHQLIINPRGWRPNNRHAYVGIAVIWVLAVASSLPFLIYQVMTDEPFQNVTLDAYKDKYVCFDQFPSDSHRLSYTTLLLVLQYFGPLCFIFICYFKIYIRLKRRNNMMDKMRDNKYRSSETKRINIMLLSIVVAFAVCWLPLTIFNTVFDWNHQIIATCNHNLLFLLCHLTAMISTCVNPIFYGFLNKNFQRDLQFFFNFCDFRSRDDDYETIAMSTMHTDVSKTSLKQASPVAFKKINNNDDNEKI

T4: human NPY2 receptor (NPY2R) (human, UniProt P49146)
T4 chain: T1 sequence (P49146 1-381)


What was measured:
[1] = target: T1, Human Neuropeptide Y2 Receptor; experiment: Radioligand binding competition assay (RLB); details: Table 3, 125I-PYY(1-36) competition; read-out: Ki
Procedure, shortened: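 IC50 values come from sigmoidal dose-response fits of scintillation counts after peptides competed for radioligand binding at receptor membranes (0.5 μg protein/well). Incubation ran 2 h at room temperature in HEPES buffer, pH 7.4, with Mg2+, Ca2+ and 0.2% ovalbumin.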

Solubility determination = details: for Sol6: pH 6; for Sol7: pH 7
Procedure, shortened: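 Solubility is derived from the ratio of reversed-phase peak areas, filtered sample over a control dissolved at 1 mg/ml in 50% acetonitrile. Peptides are agitated for 2 hours at room temperature in 0.1 M sodium diphosphate at pH 6.4 or 7.0, aiming at 10 mg/ml.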

[2] = target: T1, Human Neuropeptide Y2 Receptor; experiment: Activity (RLB binding) after incubation in solutions at different pH values; details: apparent Ki of filtrate after incubation at pH8.1-8.2, assumed 10 mg/ml; read-out: RLB 8 (pH8.1-8.2)
Method: The filtration RLB assay was carried out in 96-well plates in a final volume of 100 μl per well. Freeze-dried test peptides were dissolved in 100% dimethyl sulfoxide (DMSO) to stock solutions of 1 mM and serial dilutions were performed in assay buffer (50 mM HEPES, 5 mM MgCl2, 1 mM CaCl2, pH 7.4) containing 0.2% ovalbumin. […] Next, 80 μL membranes (HTS066M, ChemiSCREEN™ Human Neuropeptide Y2 Receptor Membrane Preparation, CHEMICON) were added to each well to give a final protein concentration of 0.5 μg/well. The plates were sealed and incubated at room temperature for 2 hours in a plate shaker set at 400 rpm. The incubation was stopped by vacuum filtration onto 0.5% polyethylene amine (PE) presoaked GF/C filters using a 96-well FilterMate™ harvester (Perkin Elmer) followed by four washes with 300 μl/well ice-cold wash buffer (50 mM HEPES, 500 mM NaCl, pH7.4). Filter plates were then dried for 60 min at room temperature and the bottom of the plates was sealed with backing tape UniFilter-96. Finally, 50 μl/well scintillation counter cocktail (Microscint20, Packard) was added and the radioactivity was counted in the Packard TopCount NXT scintillation counter. IC50 values (the half maximal inhibitory concentration of the agonist) were calculated by nonlinear regression analysis of sigmoidal dose-response curves.
The peptide was (partially) dissolved by shaking the filter unit horizontally at approx. 400 rpm for 2 hours at room temperature. The sample was filtered to remove any insoluble particles.

NMRI mice = experiment: Effect on acute food intake in normal NMRI mice; assay type: in vivo; details: 5 nmol/kg subcutaneously once
Method: Male NMRI mice were obtained from Charles River (Charles River, Research Models & Services Germany GmbH) or from JanVier (JanVier Labs, France) at 5 weeks of age. […] Room temperature was controlled to 21° C.±1° C., with 60%±20% humidity.
Animals were transferred 5-7 days before the start of the study to a real-time food intake monitoring system, HM-2 system (MBRose, Denmark), to allow acclimatization to experimental conditions. As the animals were uniquely identified with microchips, each individual animal was identified by its microchip upon entry and exit from the food channel. Randomization of the mice for each study group (n=7-8) was based on body weight measured the day before the start of the study. A vehicle-treated (50 mM phosphate buffer pH7 with 5% Mannitol) group was included in each experiment. Six hours before the start of the night phase animals were fasted. One hour before the dark phase animals were dosed once subcutaneously (5 nmol/kg) with test peptide. […] The food intake of the treated groups was normalized (in %) to the average food intake of the group receiving vehicle (Table 7). Statistical significance was evaluated using One-way analysis of variance with Turkey's multiple comparison test. P<0.05 was considered statistically significant.

[3] = target: T2, human NPY5 receptor (hY5R); experiment: HTRF cAMP Gi assay, hY5R
[4] = target: T5, human NPY4 receptor (hY4R) (Homo sapiens, UniProt P50391); experiment: HTRF cAMP Gi assay, hY4R; assay type: cell-based; details: CHO-K1 cells
T5 construct: expressed in transfected cells; host or cells: CHO-K1

[5] = target: T3, human NPY1 receptor (hY1R); experiment: HTRF cAMP Gi assay, hY1R; assay type: cell-based; details: CHO-K1 cells
[6] = target: T4, human NPY2 receptor (NPY2R); experiment: competition

T5 sequence (P50391 whole entry): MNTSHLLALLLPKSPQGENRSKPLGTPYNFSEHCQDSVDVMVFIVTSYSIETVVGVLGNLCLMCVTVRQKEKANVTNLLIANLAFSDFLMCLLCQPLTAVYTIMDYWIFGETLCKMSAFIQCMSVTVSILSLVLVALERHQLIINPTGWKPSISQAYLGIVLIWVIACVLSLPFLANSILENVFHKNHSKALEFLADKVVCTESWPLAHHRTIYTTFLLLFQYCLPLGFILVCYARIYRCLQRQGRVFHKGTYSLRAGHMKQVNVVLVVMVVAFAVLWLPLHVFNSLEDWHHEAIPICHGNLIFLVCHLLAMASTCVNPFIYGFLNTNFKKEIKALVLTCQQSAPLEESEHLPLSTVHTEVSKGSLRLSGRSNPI

Ki [1]	Sol6 (Solubility determination)	Sol7 (Solubility determination)	Ki [2]	EC50 [3]	EC50 [4]	EC50 [5]	Ki [6]	Molecule	Acute Food Intake 24 h [% vehicle] (NMRI mice)
1.04 nM	8.9 mg/mL	9.2 mg/mL	3.1 nM	> 5000 nM	> 5000 nM	> 5000 nM		CC[C@H](C)[C@H](NC(=O)[C@H](CCC(=O)O)NC(=O)[C@H](CCC(=O)O)NC(=O)[C@@H]1CCCN1C(=O)[C@@H](NC(=O)[C@H](C)NC(=O)[C@H](CC(=O)O)NC(=O)[C@H](C)NC(=O)[C@H](CCC(=O)O)NC(=O)[C@@H]1CCCN1C(=O)[C@H](CCCCNC(=O)CCCCCNC(=O)CC[C@H](NC(=O)CCCCCCCCCCCCCCCCC(=O)O)C(=O)O)NC(=O)[C@H](CCC(=O)O)NC(=O)[C@@H]1CCCN1C(=O)[C@H](C)NC(=O)CC(C)C)[C@@H](C)O)C(=O)N[C@@H](CCC(N)=O)C(=O)N[C@@H](CCCNC(=N)N)C(=O)N[C@@H](Cc1ccc(O)cc1)C(=O)N[C@@H](Cc1ccc(O)cc1)C(=O)N[C@H](C(=O)N[C@@H](CO)C(=O)N[C@@H](CC(C)C)C(=O)N[C@@H](CCCNC(=N)N)C(=O)N[C@@H](Cc1c[nH]cn1)C(=O)N[C@@H](Cc1ccc(O)cc1)C(=O)N[C@@H](Cc1ccc(O)cc1)C(=O)N[C@@H](CC(N)=O)C(=O)N[C@@H](Cc1c[nH]c2ccccc12)C(=O)N[C@@H](CC(C)C)C(=O)N[C@H](C(=O)N[C@@H](CCCNC(=N)N)C(=O)N[C@@H](CCC(N)=O)C(=O)N[C@@H](CCCNC(=N)N)C(=O)N[C@@H](Cc1ccc(O)cc1)C(N)=O)[C@@H](C)O)C(C)C [Compound 7, N{alpha-4}-(3-methylbutanoyl)-N{epsilon-7}-(6-[(4S)-4-carboxy-4-(17-carboxyheptadecanamido)butanamido]hexanoyl)[4A,7K,9E,10A,13T,17I,18Q,22V,28Y,30W,31L]-hPYY(4-36)]	38 % vehicle
5.64 nM	9.2 mg/mL	9.1 mg/mL		> 5000 nM				CC(C)CC(=O)N[C@@H](C)C(=O)N1CCC[C@H]1C(=O)N[C@@H](C)C(=O)N[C@@H](CCCCNC(=O)CCCCCNC(=O)CC[C@H](NC(=O)CCCCCCCCCCCCCCCCC(=O)O)C(=O)O)C(=O)N1CCC[C@H]1C(=O)N[C@@H](CCC(=O)O)C(=O)N[C@@H](CCC(=O)O)C(=O)N[C@@H](CC(=O)O)C(=O)N[C@@H](C)C(=O)N[C@H](C(=O)N1CCC[C@H]1C(=O)N[C@@H](CCC(=O)O)C(=O)N[C@@H](CCC(=O)O)C(=O)N[C@@H](CC(C)C)C(=O)N[C@@H](CCC(N)=O)C(=O)N[C@@H](CCCNC(=N)N)C(=O)N[C@@H](Cc1ccc(O)cc1)C(=O)N[C@@H](Cc1ccc(O)cc1)C(=O)N[C@H](C(=O)N[C@@H](CO)C(=O)N[C@@H](CC(C)C)C(=O)N[C@@H](CCCNC(=N)N)C(=O)N[C@@H](Cc1c[nH]cn1)C(=O)N[C@@H](Cc1ccc(O)cc1)C(=O)N[C@@H](Cc1ccc(O)cc1)C(=O)N[C@@H](CC(N)=O)C(=O)N[C@@H](Cc1c[nH]c2ccccc12)C(=O)N[C@@H](CC(C)C)C(=O)N[C@H](C(=O)N[C@@H](CCCNC(=N)N)C(=O)N[C@@H](CCC(N)=O)C(=O)N[C@@H](CCCNC(=N)N)C(=O)N[C@@H](Cc1ccc(O)cc1)C(N)=O)[C@@H](C)O)C(C)C)[C@@H](C)O [Compound 26, N{alpha-4}-(3-methylbutanoyl)-N{epsilon-7}-(6-[(4S)-4-carboxy-4-(17-carboxyheptadecanamido)butanamido]hexanoyl)[4A,6A,7K,9E,13T,18Q,22V,28Y,30W,31L]-hPYY(4-36)]	53 % vehicle
							2.73 nM	Isovaleryl-APEK([Ahx-γGlu-C18 diacid])PEAEASPEELQRYYVSLRHYYNWLTRQRY-NH2 [Compound 122]	

Reference: patent publication US12391737B2, “Soluble NPY2 receptor agonists” (Boehringer Ingelheim International GmbH, priority 2020, dated 2025)
